Data published in patent publication US8017649B2, “Flavonoid compounds and uses thereof” (Howard Florey Institute of Experimental Physiology and …, priority 2005, dated 2011).
“Also recorded” adds a separate entry of the source.

How the values were obtained:
anaesthetised rats = test: Arterial pressure and heart rate in anaesthetised rats after intravenous injection; type: in vivo, rat; conditions: for change in heart rate (HR) / change in mean arterial pressure (MAP): intravenous, anaesthetised rats
Experimental: A unit dosage of an aqueous solution of 3-hydroxyflavone-3-hemiadipate (15) was administered to a group of male anesthetized Sprague Dawley rats intravenously and the blood pressure monitored over a period of time.
Male Sprague-Dawley rats (250-350 g) were anaesthetised with pentobarbitone sodium (60 mg kg^−1, ip). The trachea was isolated and cannulated with polyethylene tracheal tube (I.D. 2.0 mm), and the rat was allowed to breathe spontaneously.
The right carotid artery was cannulated and connected with a heparinised saline filled cannula (O.D. 0.75, I.D, 0.58 mm) and connected to a pressure transducer. Mean and phasic arterial pressure were continuously measured and recorded on a polygraph. The heart rate, was derived from the phasic arterial pressure using a tachometer.
DiOHF3HA ([…]) was injected intravenously, allowing at least 30 min between injections, and the peak changes in mean arterial pressure and heart rate measured. […] In a separate group of experiments ACh (0.3 mg/kg iv) and phenylephrine (PE, […]) were injected before and 30 minutes after DiOHF3HA (3 mg/kg iv), a time when arterial pressure and heart rate had returned to control levels. […]

conscious rats = test: Endothelin-1-induced ischaemic stroke in conscious rats; type: in vivo, rat; conditions: for hemineglect (sticky tape) test latency / infarct in cortex / infarct in striatum: DiOHF 10 mg/kg or DiOHF3HA 15 mg/kg/day i.v.; for infarct in cortex / infarct in striatum: 72 h
Experimental: Ischaemic stroke was studied in conscious rats, with daily monitoring of neurological function and post mortem morphological assessment of cerebral infarcts at 72 hours alter stroke. Unilateral, transient cerebral ischaemia and reperfusion was induced in conscious rats by injection of the potent vasoconstrictor endothelin-1 outside but close to the right middle cerebral artery MCA, (via a pre-implanted guide tube). The ensuing stroke was graded on a scale of 0 to 5 by immediate behaviour, and potential neuroprotective compounds were injected intravenously 3 h after the stroke, and at 24 hour intervals thereafter.
Male Hooded Wistar rats (280-340 g) were anaesthetised with pentobarbitone sodium in a volume of 0.6 ml (60 mg/kg i.p.) for insertion of an intravenous (i.v.) catheter into the jugular vein for acute drug administration, A 23-gauge stainless steel guide cannula was then stereotaxically implanted into the piriform cortex 2 mm dorsal to the right MCA (0.2 mm anterior, −5.2 mm lateral and −5.9 mm ventral). The cannula was secured with dental acrylate cement and two small screws inserted into the skull. The scalp was closed with sutures. Rats were housed individually on a 12 h day/night cycle at a temperature of 18-22° C. and allowed to recover for 5 days before induction of stroke.
Vaso constriction of the right middle cerebral artery (MCA) was induced in conscious rats by administration of the potent vasoconstrictor agent endothelin-1 (ET-1) (60 pmol in 3 μl of saline over 10 min) via a 30-gauge injector that protruded 2 mm beyond the end of the previously implanted stereotaxic guide cannula. The injector was held in place by a poly-tubing cuff and the rat was placed in a clear Plexiglass box for observation during ET-1 injection. During stroke induction we observed counter-clockwise circling, clenching and dragging of the contralateral forepaw, validating the correct placement of the cannula. These behavioural changes occurred within 2 to 10 minutes of the commencement of the ET-1 injection and similar behaviours have been reported by other researchers employing this model. We have assigned a rating scale of stroke severity based on these behavioural changes during stroke and have shown that vehicle-treated rats assigned with higher stroke ratings have greater infarct volumes and neurological deficits. […] Rectal temperatures were taken with a thermistor probe, prior to stroke and at 30- or 60-minute intervals for 3 hours after stroke.
All behavioural tests were conducted prior to any procedures (pre-surgery, day 1), immediately prior to ET-1-induced MCA occlusion (pre-ischemia, day 6) and 24, 48 and 72 hours after ET-1-induced MCA occlusion. The behaviour of each rat was compared to pre-stroke, thus each rat acted as its own control. All rats were coded so that the investigator was blinded to treatment condition. Neurological abnormalities were evaluated with the use of a neurological deficit score based on detection of abnormal posture and hemiplegia. Abnormal pastures were assessed by suspending rats by the tail and scoring twisting of the thorax and extension of the forelimbs. Hemiplegia was evaluated when rats were placed on a raised platform. Deficits were deemed to be present when the hind limb contralateral to the infarcted hemisphere slipped off the edge of the platform and/or when the contralateral forelimb slipped off when the snout and whiskers were not in contact with the surface. All behaviours were scored on the following scale: 0=no deficit; 1=slight; 2=moderate; and 3=severe. Thus, when scores were totalled the maximum neurological deficit score was 12. A score of 0 was considered normal.
Sensory hemi-neglect was evaluated using a test consisting of placing adhesive tapes (Avery adhesive label, […] circles) on the distal-radial region of each wrist, Placement of the first tape was randomised between contralateral and ipsilateral limbs. […]

[1] = system: rat aorta precontracted with PE; test: Direct relaxation of PE/U46619-precontracted rat aortic rings; type: cell-based
Experimental: Following testing of endothelial integrity, rings were repeatedly washed and re-equilibrated for 30 minutes before the addition of PE (10^−8−2×10^−7 M) and 9,11-dideoxy-9α, 11α-epoxymethano-prostaglandin F2α (U46619, 10^−9-10^−8 M) to produce an active force in the range of 40-60% of KPSS-induced contraction. The level of precontraction was matched between the various groups by adjusting the concentrations of PE and U46619. Cumulative concentration-response curves in the range 10^−8-10^−4 M were conducted for 3′,4′-dihydroxyflavonol, 3-hydroxyflavone-3-hemiadipate, 3′,4′-dihydroxy-3-hemiadipate, 3-hydroxyflavone-3-phosphate.
Experiments were conducted in the presence of an esterase, butyryl cholinesterase (BuCHE, 1000 U/L) for the hemiadipate derivates and a phosphatase 1000 U/L) in the case of the phosphate derivatives.
Following testing of endothelial integrity, rings were repeatedly washed and re-equilibrated for 30 minutes before the addition of PE (10^−8−2×10^−7 M) and 9,11-dideoxy-9α, 11α-epoxymethano-prostaglandin F2α (U46619, 10^−9-10^−7 M) to produce an active force in the range of 40-60% of KPSS-induced contraction. Cumulative concentration-response curves in the range 10^−7-10^−4 M were conducted for vehicle, 3′-hydroxyflavonol, F3HA, DiOHF3HA, F3P. Experiments were conducted in the presence and absence of 1000 U/L BuCHE to cleave the adipate in F3HA and DiOHF3HA. In experiments using F3P 1000 U/L phosphatase was used in some experiments to cleave the phosphate.

rat aortic rings = test: Relaxation of rat aortic rings in response to A23187 or isoprenaline; type: cell-based; conditions: 0.1 mM, absence or presence of cholinesterase
[2] = mild to moderate strokes, DiOHF 10 mg/kg or DiOHF3HA 15 mg/kg/day i.v. from 3 h post-stroke
[3] = 30 min after DiOHF3HA 3 mg/kg iv
[4] = all stroke grades (2-4), DiOHF3HA 15 mg/kg/day

Row | Compound | change in heart rate (HR) (anaesthetised rats) | change in mean arterial pressure (MAP) (anaesthetised rats) | hemineglect (sticky tape) test latency (conscious rats; mild to moderate strokes) | neurological deficit score (conscious rats; [2]) | infarct in cortex (conscious rats; mild to moderate strokes) | infarct in striatum (conscious rats; mild to moderate strokes) | direct relaxing effect on precontracted vessels ([1]; DiOHF3HA plus 1000 U/L BuCHE) | direct relaxing effect on precontracted vessels ([1]; substance alone) | relaxation in response to A23187 or isoprenaline (rat aortic rings) | PE-induced increase in arterial pressure (anaesthetised rats; [3]) | depressor response to ACh (anaesthetised rats; [3]) | area of damage in the striatum (conscious rats; all stroke grades (2-4), DiOHF3HA 15 mg/kg) | infarct area through the cortex (conscious rats; all stroke grades (2-4), DiOHF3HA 15 mg/kg i.v.) | body weight following stroke (conscious rats; [4]) | core temperature following intravenous injection (conscious rats; [4]) | hemineglect (sticky label) test latency (conscious rats; [4]) | neurological deficit score (conscious rats; all stroke grades (2-4), DiOHF3HA 15 mg/kg/day, 24, 48 or 72 hours) | body weight following stroke (conscious rats; mild to moderate strokes, DiOHF3HA 15 mg/kg/day)
1 | O=c1c(O)c(-c2ccc(O)c(O)c2)oc2ccccc12 [DiOHF, 3′,4′-Dihydroxyflavonol, reference compound] | dose-dependent decrease in HR | dose-dependent decreases in MAP | abolished the increase in hemineglect scores | reduced the neurological deficits at 48 and 72 h; also recorded: significantly improved neurological outcome | reduced the volume of infarct produced in the cerebral cortex; also recorded: significantly reduced the area of infarct | completely prevented an infarct developing in the striatum; also recorded: significantly reduced the area of infarct | – | – | – | – | – | – | – | – | – | – | – | –
2 | O=C(O)CCCCC(=O)Oc1c(-c2ccc(O)c(O)c2)oc2ccccc2c1=O [DiOHF3HA, 3′,4′-dihydroxyflavone-3-hemiadipate] | dose-dependent decrease in HR; also recorded: dose-dependent decreases; also recorded: concentration dependent decreases | dose-dependent decrease in MAP; also recorded: dose-dependent decreases; also recorded: concentration dependent decreases | abolished; also recorded: significantly restored neurological function in the hemineglect test | no effect on neurological deficit scores | significantly reduced | significantly reduced the area of infarct through the striatum | marked effect on vascular tone; also recorded: direct relaxation of pre-contracted rat aortic rings only in the presence of the esterase; also recorded: cause direct relaxation of rat aortic rings | no effect on PE precontracted vessels | no effect on endothelium-dependent relaxation | diminished; also recorded: attenuated the PE-induced increase in arterial pressure | significantly enhanced the depressor response to ACh | reduced the area of damage in the striatum | significantly reduced | no significant weight loss | not significantly different from pre-stroke temperature | abolished; also recorded: significantly improved neurological function in the hemineglect test | measurably improved neurological deficit scores | did not lose weight
